In patent US20090220562A1, “Osteogenic and anti-adipogenic oxysterols” (priority 2005, published 2009):

Legend:
Type in all cases: cell-based, mouse
[1] = test system: marrow stromal cells; experiment: Osteogenic differentiation of marrow stromal cells (marker not specified: ALP activity, osteocalcin mRNA, mineral formation); conditions: pretreatment and co-treatment; 20S 5-15 μM
Protocol: The purpose of the study was to identify other osteogenic and anti-adipogenic oxysterols based on the chemical structure of previously identified oxysterols. The ability of such candidate oxysterol molecules to induce the formation of osteoblastic cells in cultures of marrow stromal cells (which are progenitors of osteoblastic cells that make bone) were tested. In order to assess osteogenic differentiation of cells, one or more markers of osteogenic differentiation were measured in untreated cells and cells treated with the test oxysterols. These markers included: alkaline phosphatase activity, osteocalcin mRNA expression and mineral formation in cultures of marrow stromal cells. Activation of either one or more than one marker by a single or combination oxysterols is indicative of their osteogenic property.

[2] = test system: osteocalcin mRNA; experiment: Northern blotting for osteocalcin mRNA in M2-10B4 cells; conditions: for induction of osteocalcin gene expression by individual oxysterols: 0.5 to less than 10 μM, as many as 14 days (data not shown)
Protocol: RNA isolation and Northern blot analysis—Following treatment of cells under appropriate experimental conditions, total RNA was isolated using the RNA isolation kit from Stratagene (La Jolla, Calif., U.S.A.). Total RNA ([…]) was run on a 1% agarose/formaldehyde gel and transferred to Duralon-UV membranes (Strategene, CA, U.S.A.) and cross-linked with UV light. The membranes were hybridized overnight at 60 degree C. with ^32P-labeled mouse osteocalcin cDNA probe, mouse lipoprotein lipase (LPL), mouse adipocyte protein 2 (aP^2) PCR-generated probes, human 28S or 18S rRNA probes obtained from Geneka Biotechnology (Montreal, Quebec, Canada) and Maxim Biotech (San Francisco, Calif., U.S.A.), respectively. The PCR products were generated using primer sets synthesized by Invitrogen (Carlsbad, Calif., U.S.A.) with the following specifications: mouse aP2 gene (accession no. M13261); sense (75-95) 5′-[…]-3′, antisense (362-383) 5′-[…]-3′, generating a PCR product of 309 base pairs. Mouse LPL (accession no. XM—134193); sense (1038-1058) 5′-[…]-3′, antisense (1816-1836) 5′-[…]-3′, generating a PCR product of 799 base pairs. The PCR products were gel-purified and sequenced by the UCLA sequencing core, showing the highest similarity to their respective GenBank entries. Following hybridization, the blots were washed twice at room temperature with 2×SSC+0.1% SDS, and then twice at 60 degree C. with 0.5×SSC+0.1% SDS, and exposed to X-ray film. The extent of gene induction was determined by densitometry.
After 4 and 8 days, total RNA from duplicate samples was isolated and analyzed for osteocalcin (Osc) and 28S rRNA expression by Northern blotting as described. FIG. 3E is a radiogram of Northern blotting for osteocalcin mRNA in M2 cells exposed to a control or combination of oxysterols for 4 or 8 days. FIG. 3F is a bar graph depicting the relative demsometric units of osteocalcin mRNA in M2 cells exposed to a control or combination of oxysterols for 4 -or 8 days. Data from densitometric analysis of the Northern blot is shown in (F) as the average of duplicate samples, normalized to 28S rRNA.
Next, a combination of 22R and 20S oxysterols (RS, 2.5 μM each) were added in the presence or absence of SC as indicated. After 3 days, ALP activity was measured as described earlier. […] (B) M2 cells were treated as described in (A) and after 10 days matrix mineralization in cultures was quantified by a ^45Ca incorporation assay as described earlier. […] (C) M2 cells were pretreated with 20 μM SC for 4 hours, followed by the addition of RS in the presence or absence of SC as described above. After 8 days, total RNA was isolated and analyzed for osteocalcin (Osc) and […] expression by Northern blotting as previously described. Data from densitometric analysis of the Northern blot is shown in (D) as the average of duplicate samples, normalized to 18S rRNA. (E) M2 cells at confluence were pretreated for 2 hours with control vehicle (C), or PLA2 inhibitors ACA (25 μM) and AACOCF3 (AAC, 20 μM), in osteogenic medium. Next, a combination of 22R and 20S oxysterols (RS, 2.5 μM) was added in the presence or absence of the inhibitors as indicated. After 3 days, ALP activity was measured as previously described. […] (F) M2 cells were treated as described in (E). After 10 days, matrix mineralization in cultures was quantified using a ^45Ca incorporation assay as previously described. Results from a representative of three experiments are shown, reported as the mean of quadruplicate determinations ±SD, normalized to protein concentration (p<0.01 for RS vs. RS+ACA and RS+AAC).
ALP activity was measured after 2 days, as described. […] (B) M2 cells were treated as described in (A). After 10 days, matrix mineralization in cultures was quantified using a ^45Ca incorporation assay as described. […] (C) M2 cells were treated under similar conditions as those described above. […]

[3] = test system: Runx2; experiment: Runx2 DNA binding and protein expression in M2-10B4 cells; conditions: doses of 5-15 μM
Protocol: Method: Marrow stromal cells (M2-10B4 (M2)) were treated with doses of 5-15 μM 20S-hydroxycholestrol.
Method: Marrow stromal cells (M2-10B4 (M2)) were treated with doses of 5-15 μM20S-hydroxycholestrol. Groups of cells were pre-treated with 22S or 22R.
Method: Marrow stromal cells (M2-10B4 (M2)) were pretreated with Wnt signaling inhibitor, DKK-1 (1 μg/ml), then treated with 20S-hydroxycholestrol and 22(8)-hydroxycholesterol.

[4] = test system: ERK1 and ERK2; experiment: Western blot for native and phosphorylated ERK in M2 cells; conditions: 5 μM 20S oxysterol for 1, 4, or 8 hours
Protocol: Western blot analysis—After treatments, cells were lysed in lysis buffer, protein concentrations determined using the Bio-Rad protein assay (Hercules, Calif. U.S.A.), and SDS-PAGE performed as previously described. Probing for native and phosphorylated ERKs was performed as previously reported.
(A) M2 cells at confluence were pretreated for four hours with RPMI containing 1% FBS, followed by treatment with control vehicle or 5 μM 20S oxysterol for 1, 4, or 8 hours. Next total cell extracts were prepared and analyzed for levels of native or phosphorylated ERK (pERK) using specific antibodies as previously described. Data from a representative of four experiments are shown, each treatment shown in duplicate samples. (B) M2 cells at confluence were pretreated for 2 hours with control vehicle (C) or 20 μM PD98059 (PD) in osteogenic medium as previously described. Next, a combination of 22R and 20S oxysterols (RS, 5 μM each) were added to appropriate wells as indicated. After 10 days of incubation, matrix mineralization was quantified by the ^45Ca incorporation assay as previously described. […] (C) M2 cells at confluence were pretreated for 2 hours with 20 µM PD98059 (PD) in RPMI containing 5% FBS. […] After 10 days, adipocytes were visualized by oil Red O staining and quantified by light microscopy as previously described. […]

| SMILES | enhancement of 20S-hydroxycholesterol's induction of ALP activity, Runx2 DNA binding and protein expression, osteocalcin mRNA expression and mineralization [1] | induction of osteocalcin gene expression by individual oxysterols [2] | Runx2 DNA binding and protein expression [3] | activation of ERK1 and ERK2 [4] | osteocalcin mRNA expression ([2]; doses of 5-15 μM) |
| --- | --- | --- | --- | --- | --- |
| CC(C)CC[C@H](O)[C@@H](C)[C@H]1CC[C@H]2[C@@H]3CC=C4C[C@@H](O)CC[C@]4(C)[C@H]3CC[C@]12C [22S-hydroxycholesterol] | greatly enhanced | unable to induce | – | – | – |
| CC(C)CCC[C@](C)(O)[C@H]1CC[C@H]2[C@@H]3CC=C4C[C@@H](O)CC[C@]4(C)[C@H]3CC[C@@]21C [20S-hydroxycholesterol] | – | unable to induce | induction | sustained activation | induction |
| CC(C)CC[C@@H](O)[C@@H](C)[C@H]1CC[C@H]2[C@@H]3CC=C4C[C@@H](O)CC[C@]4(C)[C@H]3CC[C@]12C [22R-hydroxycholesterol] | greatly enhanced | unable to induce | – | – | – |
